How the values were obtained:
CT26 [1] = assay: Antitumor activity against mouse CT26 cells; type: functional, cell-based
[2] = biological target: Proto-oncogene tyrosine-protein kinase Src (Homo sapiens, UniProt P12931)
[3] = Tmax in dog at 25 mg/kg, po; type: ADME, organism-based, Canis lupus familiaris; set-up: dose 25 mg/kg, route oral; settings: in vivo
Rattus norvegicus [4] = assay: AUC in rat at 25 mg/kg, po; type: ADME, organism-based, Plasma; set-up: dose 25 mg/kg, route oral; settings: in vivo
Cytochrome P450 3A4 = Cytochrome P450 3A4 (Homo sapiens, UniProt P08684); assay: Inhibition of CYP3A4; type: ADME
Chain of Cytochrome P450 3A4 (P08684 whole entry): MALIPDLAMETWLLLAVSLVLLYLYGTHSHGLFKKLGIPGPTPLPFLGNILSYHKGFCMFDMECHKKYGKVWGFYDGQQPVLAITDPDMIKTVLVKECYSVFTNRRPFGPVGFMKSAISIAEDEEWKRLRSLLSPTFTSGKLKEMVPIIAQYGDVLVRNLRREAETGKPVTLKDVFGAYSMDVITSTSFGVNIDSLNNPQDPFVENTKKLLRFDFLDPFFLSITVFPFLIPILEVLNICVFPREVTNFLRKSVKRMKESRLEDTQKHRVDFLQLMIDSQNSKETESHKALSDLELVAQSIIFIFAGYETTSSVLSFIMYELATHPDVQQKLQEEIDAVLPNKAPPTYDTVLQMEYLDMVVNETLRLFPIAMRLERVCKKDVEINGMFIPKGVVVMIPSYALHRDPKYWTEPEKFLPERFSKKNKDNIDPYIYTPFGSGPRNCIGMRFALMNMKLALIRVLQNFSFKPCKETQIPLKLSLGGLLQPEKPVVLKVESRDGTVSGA

[5] = Cmax in mouse at 25 mg/kg, po; type: ADME, organism-based; set-up: dose 25 mg/kg, route oral; settings: in vivo
[6] = Half life in rat at 25 mg/kg, po; type: ADME, organism-based; set-up: dose 25 mg/kg, route oral; settings: in vivo
Cytochrome P450 2D6 = Cytochrome P450 2D6 (Homo sapiens, UniProt P10635); assay: Inhibition of CYP2D6; type: ADME
Chain of Cytochrome P450 2D6 (P10635 whole entry): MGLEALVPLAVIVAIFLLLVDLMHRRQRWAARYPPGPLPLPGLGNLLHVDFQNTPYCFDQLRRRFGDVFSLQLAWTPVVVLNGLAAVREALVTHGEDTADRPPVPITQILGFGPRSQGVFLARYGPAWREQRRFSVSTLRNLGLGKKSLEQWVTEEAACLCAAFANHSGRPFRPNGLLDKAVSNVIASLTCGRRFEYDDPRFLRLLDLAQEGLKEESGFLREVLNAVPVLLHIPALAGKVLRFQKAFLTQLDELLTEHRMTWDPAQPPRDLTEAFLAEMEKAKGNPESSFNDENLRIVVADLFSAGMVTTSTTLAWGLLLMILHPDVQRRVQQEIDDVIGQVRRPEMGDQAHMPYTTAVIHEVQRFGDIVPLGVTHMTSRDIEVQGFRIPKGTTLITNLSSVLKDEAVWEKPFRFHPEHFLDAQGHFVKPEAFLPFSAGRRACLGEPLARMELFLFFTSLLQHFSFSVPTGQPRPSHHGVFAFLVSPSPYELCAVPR

K562 = assay: Antitumor activity against K562 cells; type: functional, cell-based; settings: Homo sapiens
Cytochrome P450 1A2 = biological target: T1, Cytochrome P450 1A2 (Homo sapiens, UniProt P05177); assay: Inhibition of CYP1A2; type: ADME
T1 sequence (P05177 whole entry): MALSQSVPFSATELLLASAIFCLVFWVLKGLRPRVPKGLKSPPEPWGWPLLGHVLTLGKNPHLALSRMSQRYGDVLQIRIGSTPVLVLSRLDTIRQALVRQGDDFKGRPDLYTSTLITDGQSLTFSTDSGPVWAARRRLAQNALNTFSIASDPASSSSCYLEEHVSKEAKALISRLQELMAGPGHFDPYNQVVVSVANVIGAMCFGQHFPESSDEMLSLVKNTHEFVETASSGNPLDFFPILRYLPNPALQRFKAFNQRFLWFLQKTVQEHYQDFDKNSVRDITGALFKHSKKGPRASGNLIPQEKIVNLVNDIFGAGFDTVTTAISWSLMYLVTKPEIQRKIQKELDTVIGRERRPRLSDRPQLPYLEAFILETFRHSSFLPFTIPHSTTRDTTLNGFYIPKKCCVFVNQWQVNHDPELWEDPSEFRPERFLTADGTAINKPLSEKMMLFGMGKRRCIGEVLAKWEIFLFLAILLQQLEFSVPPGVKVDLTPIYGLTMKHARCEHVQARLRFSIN

Mus musculus [7] = assay: AUC in mouse at 25 mg/kg, po; type: ADME, organism-based, Plasma; set-up: dose 25 mg/kg, route oral; settings: in vivo
A549 [8] = assay: Reduction of tumor burden in A549 cells xenografted in nu/nu mouse at 40 mg/kg, ip relative to control; type: functional; set-up: scale not given: the % may be the effect or the level left; settings: route intraperitoneal
A549 [9] = assay: Antitumor activity against A549 cells; type: functional, cell-based; settings: Homo sapiens
[10] = Clearance in mouse at 25 mg/kg, po; type: ADME, organism-based; set-up: dose 25 mg/kg, route oral; settings: in vivo
[11] = Clearance in dog at 25 mg/kg, po; type: ADME, organism-based, Canis lupus familiaris; set-up: dose 25 mg/kg, route oral; settings: in vivo
[12] = Half life in dog at 25 mg/kg, po; type: ADME, organism-based, Canis lupus familiaris; set-up: dose 25 mg/kg, route oral; settings: in vivo
[13] = Bioavailability in dog at 25 mg/kg, po; type: ADME, organism-based, Canis lupus familiaris; settings: in vivo
[14] = Clearance in rat at 25 mg/kg, po; type: ADME, organism-based; set-up: dose 25 mg/kg, route oral; settings: in vivo
[15] = Bioavailability in mouse at 25 mg/kg, po; type: ADME, organism-based; settings: in vivo
Canis familiaris [16] = assay: AUC in dog at 25 mg/kg, po; type: ADME, organism-based, Canis lupus familiaris, Plasma; set-up: dose 25 mg/kg, route oral; settings: in vivo
Mus musculus [17] = assay: Volume of distribution in mouse at 25 mg/kg, po; type: ADME, organism-based; set-up: dose 25 mg/kg, route oral; settings: in vivo
MDA-MB-231 = assay: Antitumor activity against MDA-MB-231 cells; type: functional, cell-based; settings: Homo sapiens
MCF7 = assay: Antitumor activity against MCF7 cells; type: functional, cell-based; settings: Homo sapiens
[18] = Cmax in dog at 25 mg/kg, po; type: ADME, organism-based, Canis lupus familiaris; set-up: dose 25 mg/kg, route oral; settings: in vivo
[19] = biological target: Platelet-derived growth factor receptor beta (Homo sapiens, UniProt P09619); assay: Inhibition of PDGFRbeta
Chain of Platelet-derived growth factor receptor beta (P09619 whole entry): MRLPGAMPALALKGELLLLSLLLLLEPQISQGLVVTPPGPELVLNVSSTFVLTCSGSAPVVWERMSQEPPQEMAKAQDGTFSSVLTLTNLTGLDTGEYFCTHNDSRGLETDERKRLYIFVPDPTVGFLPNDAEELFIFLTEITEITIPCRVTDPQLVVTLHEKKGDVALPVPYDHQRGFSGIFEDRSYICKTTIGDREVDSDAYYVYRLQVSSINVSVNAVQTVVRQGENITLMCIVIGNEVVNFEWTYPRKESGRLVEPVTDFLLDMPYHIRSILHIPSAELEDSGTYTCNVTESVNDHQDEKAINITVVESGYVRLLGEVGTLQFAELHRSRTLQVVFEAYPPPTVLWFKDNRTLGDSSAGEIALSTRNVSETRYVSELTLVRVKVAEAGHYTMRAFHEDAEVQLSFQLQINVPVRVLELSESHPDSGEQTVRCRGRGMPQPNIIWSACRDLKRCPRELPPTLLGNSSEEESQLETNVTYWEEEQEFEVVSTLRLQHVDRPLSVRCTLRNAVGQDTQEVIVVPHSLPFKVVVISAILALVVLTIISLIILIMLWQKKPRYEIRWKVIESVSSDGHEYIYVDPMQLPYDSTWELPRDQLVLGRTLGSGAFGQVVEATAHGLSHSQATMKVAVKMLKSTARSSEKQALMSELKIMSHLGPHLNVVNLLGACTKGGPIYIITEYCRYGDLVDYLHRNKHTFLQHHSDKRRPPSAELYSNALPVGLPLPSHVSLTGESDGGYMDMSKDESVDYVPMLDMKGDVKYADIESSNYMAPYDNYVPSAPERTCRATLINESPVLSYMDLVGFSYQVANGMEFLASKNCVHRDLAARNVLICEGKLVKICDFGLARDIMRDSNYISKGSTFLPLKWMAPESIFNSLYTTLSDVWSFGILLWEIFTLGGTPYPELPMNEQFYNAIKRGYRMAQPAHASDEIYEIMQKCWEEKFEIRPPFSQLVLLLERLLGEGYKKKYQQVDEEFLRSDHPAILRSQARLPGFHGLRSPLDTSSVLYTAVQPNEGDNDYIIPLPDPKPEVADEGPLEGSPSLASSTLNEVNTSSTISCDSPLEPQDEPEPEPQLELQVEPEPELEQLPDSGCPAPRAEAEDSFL

[20] = Tmax in mouse at 25 mg/kg, po; type: ADME, organism-based; set-up: dose 25 mg/kg, route oral; settings: in vivo
Rattus norvegicus [21] = assay: Volume of distribution in rat at 25 mg/kg, po; type: ADME, organism-based; set-up: dose 25 mg/kg, route oral; settings: in vivo
HT-29 = assay: Antitumor activity against HT29 cells; type: functional, cell-based; settings: Homo sapiens
CT26 [22] = assay: Reduction of tumor volume in CT26 xenografted in BALB/c mouse at 50 mg/kg, ip relative to control; type: functional; set-up: scale not given: the % may be the effect or the level left; settings: route intraperitoneal
Cytochrome P450 2C19 = Cytochrome P450 2C19 (Homo sapiens, UniProt P33261); assay: Inhibition of CYP2C19; type: ADME
Chain of Cytochrome P450 2C19 (P33261 whole entry): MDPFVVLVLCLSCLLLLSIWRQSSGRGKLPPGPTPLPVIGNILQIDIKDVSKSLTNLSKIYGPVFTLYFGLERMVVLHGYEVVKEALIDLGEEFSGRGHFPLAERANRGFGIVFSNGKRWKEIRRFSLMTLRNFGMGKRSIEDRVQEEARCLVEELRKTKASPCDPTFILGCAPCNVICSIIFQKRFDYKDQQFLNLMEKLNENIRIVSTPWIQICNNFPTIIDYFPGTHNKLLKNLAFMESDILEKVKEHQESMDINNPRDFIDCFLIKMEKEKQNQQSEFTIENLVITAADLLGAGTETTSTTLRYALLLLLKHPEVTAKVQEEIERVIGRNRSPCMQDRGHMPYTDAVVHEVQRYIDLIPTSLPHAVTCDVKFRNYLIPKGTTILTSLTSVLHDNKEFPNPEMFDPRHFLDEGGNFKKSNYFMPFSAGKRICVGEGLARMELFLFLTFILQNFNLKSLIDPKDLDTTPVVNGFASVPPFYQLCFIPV

[23] = Bioavailability in rat at 25 mg/kg, po; type: ADME, organism-based; settings: in vivo
Canis familiaris [24] = assay: Volume of distribution in dog at 25 mg/kg, po; type: ADME, organism-based, Canis lupus familiaris; set-up: dose 25 mg/kg, route oral; settings: in vivo
[25] = Half life in mouse at 25 mg/kg, po; type: ADME, organism-based; set-up: dose 25 mg/kg, route oral; settings: in vivo
Cytochrome P450 2C9 = Cytochrome P450 2C9 (Homo sapiens, UniProt P11712); assay: Inhibition of CYP2C9; type: ADME
Chain of Cytochrome P450 2C9 (P11712 whole entry): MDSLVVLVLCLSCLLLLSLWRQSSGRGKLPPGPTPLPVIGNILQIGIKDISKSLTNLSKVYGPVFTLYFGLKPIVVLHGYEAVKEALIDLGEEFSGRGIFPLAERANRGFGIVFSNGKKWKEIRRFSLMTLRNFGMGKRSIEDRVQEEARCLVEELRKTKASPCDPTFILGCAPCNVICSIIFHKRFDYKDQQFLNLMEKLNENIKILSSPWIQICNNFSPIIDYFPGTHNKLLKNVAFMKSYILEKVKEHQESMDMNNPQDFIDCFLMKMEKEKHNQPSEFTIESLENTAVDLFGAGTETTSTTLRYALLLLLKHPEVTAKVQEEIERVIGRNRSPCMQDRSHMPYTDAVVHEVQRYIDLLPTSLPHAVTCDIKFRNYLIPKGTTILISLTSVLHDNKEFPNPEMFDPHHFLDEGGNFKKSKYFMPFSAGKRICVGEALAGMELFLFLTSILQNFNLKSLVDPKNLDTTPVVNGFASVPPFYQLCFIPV

COLO 205 = assay: Antitumor activity against Colo205 cells; type: functional, cell-based; settings: Homo sapiens
[26] = Tmax in rat at 25 mg/kg, po; type: ADME, organism-based; set-up: dose 25 mg/kg, route oral; settings: in vivo
MOLT-4 = assay: Antitumor activity against Molt4 cells; type: functional, cell-based; settings: Homo sapiens
[27] = Cmax in rat at 25 mg/kg, po; type: ADME, organism-based; set-up: dose 25 mg/kg, route oral; settings: in vivo

Chain of Proto-oncogene tyrosine-protein kinase Src (P12931 2-536 limits assumed): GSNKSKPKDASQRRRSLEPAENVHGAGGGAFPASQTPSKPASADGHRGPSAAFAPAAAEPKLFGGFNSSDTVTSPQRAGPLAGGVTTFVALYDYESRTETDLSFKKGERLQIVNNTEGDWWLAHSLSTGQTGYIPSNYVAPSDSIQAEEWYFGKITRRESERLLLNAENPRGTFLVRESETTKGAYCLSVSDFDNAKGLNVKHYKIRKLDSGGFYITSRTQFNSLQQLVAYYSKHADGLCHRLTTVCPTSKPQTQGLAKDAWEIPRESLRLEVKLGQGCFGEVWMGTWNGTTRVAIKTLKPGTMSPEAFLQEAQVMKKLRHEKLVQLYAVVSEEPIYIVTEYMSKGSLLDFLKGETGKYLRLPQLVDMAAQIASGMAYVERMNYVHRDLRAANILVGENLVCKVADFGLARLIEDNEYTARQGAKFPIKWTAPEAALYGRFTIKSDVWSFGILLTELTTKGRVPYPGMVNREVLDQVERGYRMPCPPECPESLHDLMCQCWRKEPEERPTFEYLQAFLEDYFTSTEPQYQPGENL

## Cc1cccc(C)c1-c1cc(C)c2nc(Nc3ccc(C(=O)NN4CCN(C)CC4)cc3)nnc2c1
CT26 [1]
  IC50: 6700 nM
[2]
  IC50: 15 nM

## c1ccc2nc(Nc3ccc(OCCN4CCCC4)cc3)nnc2c1
[2]
  IC50: > 10000 nM

## Cc1ccc(CN)cc1-c1cc(C)c2nc(Nc3ccc(S(=O)(=O)NCCN4CCCC4)cc3)nnc2c1
[2]
  IC50: 353 nM

## Cc1cccc(C)c1-c1cc(C)c2nc(Nc3ccc(C(=O)NN4CCNCC4)cc3)nnc2c1
[2]
  IC50: 13 nM

## Cc1cc(-c2c(Cl)cccc2Cl)cc2nnc(Nc3ccc(OCCN4CCCC4)cc3)nc12
[3]
  Tmax: 4 h
Rattus norvegicus [4]
  AUC: 8010 ng·h/mL
Cytochrome P450 3A4
  IC50: 62000 nM
[5]
  Cmax: 415 ng/mL
[6]
  half-life: 4.6 h
Cytochrome P450 2D6
  IC50: 33000 nM
K562
  IC50: 215 nM
Cytochrome P450 1A2
  IC50: > 100000 nM
Mus musculus [7]
  AUC: 15300 ng·h/mL
A549 [8]
  Activity: 86%
A549 [9]
  IC50: 900 nM
[10]
  CL/F: 12.7 mL/min/kg
[11]
  CL/F: 14.5 mL/min/kg
[12]
  half-life: 13 h
[13]
  bioavailability: 42%
[14]
  CL/F: 12.7 mL/min/kg
[15]
  bioavailability: 74%
Canis familiaris [16]
  AUC: 8680 ng·h/mL
Mus musculus [17]
  Vdss: 16.1 L/kg
CT26 [1]
  IC50: 750 nM
MDA-MB-231
  IC50: 240 nM
MCF7
  IC50: 85 nM
[18]
  Cmax: 679 ng/mL
[19]
  Ki: 2090 nM
[20]
  Tmax: 8 h
Rattus norvegicus [21]
  Vdss: 9.4 L/kg
HT-29
  IC50: > 5000 nM
CT26 [22]
  Activity: 60%
Cytochrome P450 2C19
  IC50: 12000 nM
[23]
  bioavailability: 35%
Canis familiaris [24]
  Vdss: 18.7 L/kg
[25]
  half-life: 8 h
Cytochrome P450 2C9
  IC50: > 100000 nM
COLO 205
  IC50: 2500 nM
[26]
  Tmax: 8.8 h
MOLT-4
  IC50: 250 nM
[27]
  Cmax: 348 ng/mL

## Cc1ccc2nnc(Nc3ccc(S(=O)(=O)NCCN4CCCC4)cc3)nc2c1
[2]
  IC50: > 10000 nM

## Cc1cccc(C)c1-c1cc(NS(C)(=O)=O)c2nc(Nc3ccc(OCCN4CCCC4)cc3)nnc2c1
[2]
  IC50: 21 nM

## Cc1cccc(C)c1-c1cc(C)c2nc(Nc3cccc(N(CCN4CCCC4)C(=O)c4ccccc4)c3)nnc2c1
[2]
  IC50: 18 nM

## Cc1cc2nc(Nc3ccc(S(=O)(=O)NCCN4CCCC4)cc3)nnc2cc1N
[2]
  IC50: 92 nM

## CCN(CC)CCOc1cccc(Nc2nnc3cc(-c4c(C)cccc4C)cc(C)c3n2)c1
CT26 [1]
  IC50: 2500 nM

## Clc1cccc(Cl)c1-c1ccc2nc(Nc3ccc(OCCN4CCCC4)cc3)nnc2c1
[2]
  IC50: 30 nM

## Cc1cccc(C)c1-c1cc(C)c2nc(Nc3ccc(N(CCN4CCCC4)C(=O)c4ccccc4)cc3)nnc2c1
CT26 [1]
  IC50: 2400 nM
[2]
  IC50: 16 nM

## COc1cc2c(cc1O)CCN[C@]21CS[C@H]2c3c(OC(C)=O)c(C)c4c(c3[C@@H](COC1=O)N1[C@@H]2[C@H]2c3c(cc(C)c(OC)c3O)C[C@@H]([C@@H]1O)N2C)OCO4
[2]
  IC50: 208 nM

## CNc1cc(-c2c(C)cccc2C)cc2nnc(Nc3ccc(OCCN4CCCC4)cc3)nc12
[2]
  IC50: 10 nM

## CC(=O)Nc1cc(-c2c(C)cccc2C)cc2nnc(Nc3ccc(OCCN4CCCC4)cc3)nc12
[2]
  IC50: 14 nM

## Cc1cccc(C)c1-c1cc(C)c2nc(Nc3ccc(OCCN4CCCC4)cc3)nnc2c1
[3]
  Tmax: 1.5 h
Rattus norvegicus [4]
  AUC: 9570 ng·h/mL
Cytochrome P450 3A4
  IC50: 42000 nM
[5]
  Cmax: 790 ng/mL
[6]
  half-life: 5.6 h
Cytochrome P450 2D6
  IC50: 25000 nM
Cytochrome P450 1A2
  IC50: > 100000 nM
Mus musculus [7]
  AUC: 19100 ng·h/mL
[10]
  CL/F: 18.8 mL/min/kg
[11]
  CL/F: 5.1 mL/min/kg
[12]
  half-life: 19 h
[13]
  bioavailability: 68%
[14]
  CL/F: 9.2 mL/min/kg
[15]
  bioavailability: 86%
Canis familiaris [16]
  AUC: 9680 ng·h/mL
Mus musculus [17]
  Vdss: 11.4 L/kg
CT26 [1]
  IC50: 2300 nM
[18]
  Cmax: 5240 ng/mL
[20]
  Tmax: 6 h
Rattus norvegicus [21]
  Vdss: 7.2 L/kg
Cytochrome P450 2C19
  IC50: 12000 nM
[23]
  bioavailability: 20%
Canis familiaris [24]
  Vdss: 8.6 L/kg
[25]
  half-life: 9.5 h
Cytochrome P450 2C9
  IC50: > 100000 nM
[26]
  Tmax: 6 h
[27]
  Cmax: 419 ng/mL

## Cc1cc2nc(Nc3ccc(S(=O)(=O)NCCN4CCCC4)cc3)nnc2cc1Br
[2]
  IC50: > 10000 nM

## COc1ccc(Cl)c(-c2cc(C)c3nc(Nc4ccc(OCCN5CCCC5)cc4)nnc3c2)c1
[2]
  IC50: 778 nM

## Cc1cccc(C)c1-c1cc(N)c2nc(Nc3ccc(OCCN4CCCC4)cc3)nnc2c1
[2]
  IC50: 10 nM

## Cc1cccc(C)c1-c1cc(C)c2nc(Nc3ccnc(OCCN4CCCC4)c3)nnc2c1
CT26 [1]
  IC50: 2400 nM

## Cc1cnc(F)cc1-c1cc(C)c2nc(Nc3ccc(OCCN4CCCC4)cc3)nnc2c1
[2]
  IC50: 204 nM

## Cc1cccc(C)c1-c1cc(C)c2nc(Nc3ccc(OCCN4CCN(C)CC4)cc3)nnc2c1
CT26 [1]
  IC50: 6600 nM

From ChEMBL document CHEMBL1143794, “Discovery of [7-(2,6-dichlorophenyl)-5-methylbenzo [1,2,4]triazin-3-yl]-[4-(2-pyrrolidin-1-ylethoxy)phenyl]amine--a potent, orally active Src kinase inhibitor with anti-tumor activity in preclinical assays” (Bioorg Med Chem Lett, 2007)
